Experimental data: US12653191B2, “Active compound combinations” (Bayer Aktiengesellschaft, priority 2020, dated 2026)
Values joined by “and” are separate entries in the source; they are usually repeats but may differ in a detail not shown here. Equal values may be shown once.

Legend:
[1] = tested on: Alternaria alternata; test: in vitro-Test with fungal microorganisms, Method B (tables A13-A22); format: cell-based
Summary of the method: (§1)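 Efficacy, relative to untreated control (0% = growth as in control, 100% = no growth), from photometric growth measurement at 600 nm after 3 to 7 days at 20° C., 85% relative humidity. Compound applied in methanol+emulsifier, solvent evaporated, then spore/mycelium-amended liquid medium added.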

[2] = tested on: Cercospora beticola; test: in vitro-Test with fungal microorganisms, Method B (tables C11-C20); format: cell-based
Summary of the method: as §1

[3] = tested on: Colletotrichum lindemuthianum; test: in vitro-Test with fungal microorganisms, Method A (tables D1-D8); format: cell-based
Summary of the method: (§2)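 Methanol/emulsifier compound solution evaporated in well; liquid potato dextrose medium + spore or mycelium suspension added; 20° C, 85% RH, 3-5 d; photometric read 620 nm; % efficacy vs untreated.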

[4] = tested on: Cordana musae; test: in vitro-Test with fungal microorganisms, Method A (tables E1-E8); format: cell-based
Summary of the method: as §2

[5] = tested on: Cordana musae; test: in vitro-Test with fungal microorganisms, Method B (tables E9-E16); format: cell-based; conditions: single active
Summary of the method: as §1

[6] = tested on: Diaporthe citri; test: in vitro-Test with fungal microorganisms, Method A (tables F1-F11); format: cell-based
Summary of the method: as §2

[7] = tested on: Diaporthe citri; test: in vitro-Test with fungal microorganisms, Method B (tables F12-F15); format: cell-based
Procedure: (§3) Example: In Vitro-Test with Fungal Microorganisms
(§4) Wells of 96-well microtiter plates are filled with 30 μl of a preparation of test compound or compound combination in methanol+emulsifier alkylaryl-polyglycol-ether. Thereafter, the solvent is evaporated in a hood. At the next step, 200 μl of liquid growth medium is given, that has been amended with an appropriate concentration of spores or mycelium suspension of the test fungus.
(§5) With the aid of a photometer, the extinction in all wells is measured at the wavelength of 600 nm.
(§6) The microtiter plates are incubated for 3 to 7 days at 20° C. and 85% relative humidity. After the incubation inhibition of growth is determined photometrically. Efficacy is calculated in relation to the untreated control, 0% efficacy means fungal growth as high as in untreated control while 100% efficacy means no fungal growth is measured.
(§7) The data in tables A1 to A12, B1 to B14, C1 to C10, D1 to D8, E1 to E8, F1 to F11, G1 to G4, H1 to H4 and I1 to I5 were collected according to Method A. The data in tables A13 to A22, B15 to B18, C11 to C20, E9 to E16, F12 to F15, G5 to G15, H5 to H8, I6 to I11 and J1 to J11 were collected according to Method B.

[8] = tested on: Fusarium culmorum; test: in vitro-Test with fungal microorganisms, Method B (tables G5-G15); format: cell-based
Summary of the method: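 Compound in methanol plus alkylaryl-polyglycol-ether emulsifier dried in wells, then liquid medium containing Fusarium culmorum spores or mycelium added. Incubated 3-7 days at 20° C, 85% relative humidity; growth read at 600 nm. Efficacy relative to untreated control (0% equals control growth, 100% none).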

[9] = tested on: Colletotrichum coccodes; test: in vitro-Test with fungal microorganisms, Method B (tables J1-J11); format: cell-based
Summary of the method: as §1

[10] = tested on: Alternaria alternate; test: in vitro-Test with fungal microorganisms, Method A (tables A1-A12); format: cell-based, Alternaria alternata; conditions: applied alone
Summary of the method: as §2

[11] = tested on: Botrytis cinerea; test: in vitro-Test with fungal microorganisms, Method A (tables B1-B14); format: cell-based; conditions: for Efficacy %: alone
Summary of the method: as §2

[12] = tested on: Botrytis cinerea; test: in vitro-Test with fungal microorganisms, Method B (tables B15-B18); format: cell-based
Summary of the method: as §1

[13] = tested on: Cercospora beticola; test: in vitro-Test with fungal microorganisms, Method A (tables C1-C10); format: cell-based
Summary of the method: as §2

[14] = tested on: Parastagonospora nodorum; test: in vitro-Test with fungal microorganisms, Method B (tables H5-H8); format: cell-based; conditions: 0.08 ppm
Procedure: as §3, §4, §5, §6, §7

[15] = tested on: Ustilago segetum var. avenae; test: in vitro-Test with fungal microorganisms, Method B (tables I6-I11); format: cell-based
Summary of the method: as §1

[16] = single active compound, 100 ppm
[17] = single active compound at 20 ppm
[18] = single active compound at 100 ppm

N#Cc1ccccc1NC(=O)c1snc(Cl)c1Cl [(6.002) isotianil, isotianil]
Efficacy ([1]; 4 ppm): 0% | Efficacy ([1]; 20 ppm): 0% | Efficacy ([1]; 100 ppm): 15% | Efficacy ([1]; single compound, 0.8 ppm): 0% | Efficacy ([1]; single compound, 20 ppm): 11% | Efficacy % ([2]; 4 ppm): 8% | Efficacy % ([2]; 20 ppm): 3% | Efficacy % ([2]; single compound, 100 ppm): 0% | Efficacy % ([3]; mixing partner alone, 0.8 ppm): 0% | Efficacy % ([3]; mixing partner alone, 4.0 ppm): 9% | Efficacy % ([3]; mixing partner alone, 20.0 ppm): 3% | Efficacy % ([3]; mixing partner alone, 100.0 ppm): 0% | Efficacy % ([4]; single substance, 0.8 ppm): 9% | Efficacy % ([4]; single substance, 4.0 ppm): 6% | Efficacy % ([4]; single substance, 20.0 ppm): 0% | Efficacy ([5]; 0.8 ppm): 9% | Efficacy ([5]; 4 ppm): 15% and 18% | Efficacy ([5]; 20 ppm): 10% and 18% | Efficacy ([5]; 100 ppm): 7% | Efficacy ([6]; Table F11, 0.8 ppm alone): 0% | Efficacy ([6]; Table F11, 4.0 ppm alone): 22% | Efficacy ([6]; Table F11, 20.0 ppm alone): 37% | Efficacy ([6]; Table F11, 100.0 ppm alone): 0% | Efficacy ([6]; applied alone, 0.8 ppm): 29% | Efficacy ([6]; applied alone, 4.0 ppm): 5% | Efficacy ([6]; applied alone, 20.0 ppm): 15% | Efficacy ([6]; applied alone, 100.0 ppm): 16% | Efficacy ([6]; single active, 0.8 ppm): 0% | Efficacy ([6]; single active, 4.0 ppm): 12% | Efficacy ([6]; single active, 20.0 ppm): 14% | Efficacy ([6]; single active, 100.0 ppm): 18% | Efficacy ([7]; Table F14, 0.8 ppm alone): 10% | Efficacy ([7]; Table F14, 4 ppm alone): 9% | Efficacy ([7]; Table F14, 20 ppm alone): 5% | Efficacy ([7]; Table F14, 100 ppm alone): 19% | Efficacy ([8]; single active compound, 0.8 ppm): 7% | Efficacy ([8]; single active compound, 4 ppm): 16% | Efficacy ([8]; single active compound, 20 ppm): 14% | Efficacy [8, 16]: 20% | Efficacy % [9, 17]: 0% | Efficacy % [9, 18]: 0%

CCCOc1nc2ccc(I)cc2c(=O)n1CCC [(13.004) proquinazid, proquinazid]
Efficacy % ([10]; 0.08 ppm): 19% | Efficacy % ([10]; 0.4 ppm): 6% | Efficacy % ([10]; 2.0 ppm): 0% | Efficacy % ([10]; 10.0 ppm): 9% | Efficacy ([1]; 0.08 ppm): 0% | Efficacy ([1]; 0.4 ppm): 3% | Efficacy ([1]; 2 ppm): 4% | Efficacy ([1]; single compound, 0.08 ppm): 11% | Efficacy ([1]; single compound, 0.4 ppm): 10% | Efficacy ([1]; single compound, 2 ppm): 0% | Efficacy ([1]; single compound, 10 ppm): 5% | Efficacy ([11]; 0.08 ppm): 13% | Efficacy ([11]; 0.4 ppm): 0% | Efficacy ([11]; 2.0 ppm): 0% | Efficacy ([11]; 10.0 ppm): 0% | Efficacy % ([11]; 0.4 ppm): 0% | Efficacy % ([11]; 10.0 ppm): 0% | Efficacy % ([12]; 0.4 ppm alone): 0% | Efficacy % ([12]; 2 ppm alone): 3% and 5% | Efficacy % ([13]; 0.08 ppm alone): 9% | Efficacy % ([13]; 0.4 ppm alone): 0% | Efficacy % ([13]; 2.0 ppm alone): 0% | Efficacy % ([13]; 10.0 ppm, alone): 19% | Efficacy % ([2]; 2 ppm): 0% | Efficacy % ([2]; 10 ppm): 0% | Efficacy % ([2]; single compound, 0.08 ppm): 0% | Efficacy % ([3]; single active at 0.08 ppm): 0% | Efficacy % ([3]; single active at 0.4 ppm): 0% | Efficacy % ([3]; single active at 2.0 ppm): 2% | Efficacy % ([3]; single active at 10.0 ppm): 25% | Efficacy % ([4]; mixing partner alone, 0.08 ppm): 0% | Efficacy % ([4]; mixing partner alone, 0.4 ppm): 0% | Efficacy % ([4]; mixing partner alone, 2.0 ppm): 1% | Efficacy % ([4]; mixing partner alone, 10.0 ppm): 26% | Efficacy ([5]; 0.08 ppm): 0% and 5% | Efficacy ([5]; 0.4 ppm): 0% and 3% | Efficacy ([5]; 10 ppm): 15% and 20% | Efficacy ([6]; Table F10, 0.08 ppm alone): 0% | Efficacy ([6]; Table F10, 0.4 ppm alone): 0% | Efficacy ([6]; Table F10, 2.0 ppm alone): 12% | Efficacy ([6]; Table F10, 10.0 ppm alone): 24% | Efficacy ([6]; applied alone, 0.08 ppm): 16% | Efficacy ([6]; applied alone, 0.4 ppm): 0% | Efficacy ([6]; applied alone, 10.0 ppm): 21% | Efficacy ([8]; 0.08 ppm alone): 18% | Efficacy ([8]; 0.4 ppm alone): 0% | Efficacy ([8]; single active compound, 0.08 ppm): 2% | Efficacy ([8]; single active compound, 0.4 ppm): 11% | Efficacy ([8]; single active compound, 2 ppm): 8% and 7% | Efficacy [14]: 32% | Efficacy % ([9]; single active compound at 0.4 ppm): 0% | Efficacy % ([9]; single active compound at 2 ppm): 0% | Efficacy % ([9]; single active compound at 10 ppm): 0%

CCO[PH](=O)[O-].CCO[PH](=O)[O-].CCO[PH](=O)[O-].[Al+3] [(15.012) fosetylal]
Efficacy ([7]; Table F12, 0.8 ppm alone): 13% | Efficacy ([7]; Table F12, 4 ppm alone): 7% | Efficacy ([8]; single active compound, 4 ppm): 5% | Efficacy ([8]; single active compound, 20 ppm): 11% | Efficacy [8, 16]: 30% | Efficacy % ([15]; 0.8 ppm): 2% | Efficacy % ([15]; 20 ppm): 0% | Efficacy % ([9]; 0.8 ppm): 0% | Efficacy % ([9]; 4 ppm): 0% | Efficacy % ([9]; 20 ppm): 0% | Efficacy % ([9]; single active compound at 0.8 ppm): 27% | Efficacy % ([9]; single active compound at 4 ppm): 0% | Efficacy % [9, 17]: 2% | Efficacy % [9, 18]: 15%
